Experiments:
Test in all cases: relative viability (nuclei count vs DMSO), 5 days (fraction); higher = more cells survive
Venetoclax + Bortezomib = compound: CC1(C)CCC(CN2CCN(c3ccc(C(=O)NS(=O)(=O)c4ccc(NCC5CCOCC5)c([N+](=O)[O-])c4)c(Oc4cnc5[nH]ccc5c4)c3)CC2)=C(c2ccc(Cl)cc2)C1 [Venetoclax] + CC(C)C[C@H](NC(=O)[C@H](Cc1ccccc1)NC(=O)c1cnccn1)B(O)O [Bortezomib] (partner 0.002 µM)
How it was run: (§1)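 Cells from lung cancer lines were seeded into 1536-well plates and, one day later, dosed by pin tool. Treatments were either a single drug or a fixed dose of an anchor drug with five library-drug doses (not always all listed) in √10 steps. After 5 days, nuclei were stained in a one-step fixation (final 0.05% Triton X-100, 1% formaldehyde, 1 ug/ml Hoechst) and counted on 4× images, and relative viability is the treated-to-vehicle nuclei ratio, as the median of duplicate plates.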

Venetoclax + Pictilisib = compound: CC1(C)CCC(CN2CCN(c3ccc(C(=O)NS(=O)(=O)c4ccc(NCC5CCOCC5)c([N+](=O)[O-])c4)c(Oc4cnc5[nH]ccc5c4)c3)CC2)=C(c2ccc(Cl)cc2)C1 [Venetoclax] + CS(=O)(=O)N1CCN(Cc2cc3nc(-c4cccc5[nH]ncc45)nc(N4CCOCC4)c3s2)CC1 [Pictilisib] (partner 1 µM)
How it was run: as §1

Venetoclax + Olaparib = compound: CC1(C)CCC(CN2CCN(c3ccc(C(=O)NS(=O)(=O)c4ccc(NCC5CCOCC5)c([N+](=O)[O-])c4)c(Oc4cnc5[nH]ccc5c4)c3)CC2)=C(c2ccc(Cl)cc2)C1 [Venetoclax] + O=C(c1cc(Cc2n[nH]c(=O)c3ccccc23)ccc1F)N1CCN(C(=O)C2CC2)CC1 [Olaparib] (partner 8 µM)
How it was run: as §1

Selumetinib + Dasatinib = compound: Cn1cnc2c(F)c(Nc3ccc(Br)cc3Cl)c(C(=O)NOCCO)cc21 [Selumetinib] + Cc1nc(Nc2ncc(C(=O)Nc3c(C)cccc3Cl)s2)cc(N2CCN(CCO)CC2)n1 [Dasatinib] (partner 0.075 µM)
How it was run: as §1

| Cell Line | relative viability (Venetoclax + Bortezomib; first compound 0.01 µM) | relative viability (Venetoclax + Bortezomib; first compound 0.03162 µM) | relative viability (Venetoclax + Bortezomib; first compound 0.3162 µM) | relative viability (Venetoclax + Bortezomib; first compound 1 µM) | relative viability (Venetoclax + Pictilisib; first compound 0.01 µM) | relative viability (Venetoclax + Pictilisib; first compound 0.03162 µM) | relative viability (Venetoclax + Pictilisib; first compound 0.3162 µM) | relative viability (Venetoclax + Pictilisib; first compound 1 µM) | relative viability (Venetoclax + Olaparib; first compound 0.01 µM) | relative viability (Venetoclax + Olaparib; first compound 0.03162 µM) | relative viability (Venetoclax + Olaparib; first compound 0.1 µM) | relative viability (Venetoclax + Olaparib; first compound 0.3162 µM) | relative viability (Venetoclax + Olaparib; first compound 1 µM) | relative viability (Selumetinib + Dasatinib; first compound 0.02 µM) | relative viability (Selumetinib + Dasatinib; first compound 0.06325 µM) | relative viability (Selumetinib + Dasatinib; first compound 0.2 µM) | relative viability (Selumetinib + Dasatinib; first compound 0.6325 µM) | relative viability (Venetoclax + Bortezomib; first compound 0.1 µM) | relative viability (Venetoclax + Pictilisib; first compound 0.1 µM) |
| --- | --- | --- | --- | --- | --- | --- | --- | --- | --- | --- | --- | --- | --- | --- | --- | --- | --- | --- | --- |
| NCI-H1650 | 0.217 | 0.218 | 0.205 | 0.184 | 0.531 | 0.713 | 0.723 | 0.622 | 0.763 | 0.733 | 0.994 | 0.592 | 0.745 | 0.333 | 0.298 | 0.323 | 0.337 | – | – |
| HARA | 1.14 | 1.13 | 1.12 | 1.1 | 0.55 | 0.386 | 0.451 | 0.324 | 0.803 | 0.993 | – | 0.814 | 0.822 | 0.28 | 0.288 | 0.247 | 0.271 | 0.937 | 0.396 |
| Calu-6 | 0.981 | 0.972 | 1.08 | 1.05 | 0.801 | 0.89 | 0.857 | 0.882 | 0.609 | 0.619 | 0.602 | 0.554 | 0.546 | – | – | – | – | 1.02 | 0.879 |
| NCI-H1975 | 0.424 | 0.393 | 0.344 | 0.299 | 0.351 | 0.33 | 0.284 | 0.282 | 0.754 | 0.821 | 0.74 | 0.811 | 0.674 | 0.333 | 0.299 | 0.272 | 0.269 | 0.35 | 0.258 |
| SK-MES-1 | – | – | – | – | 0.345 | 0.398 | 0.334 | 0.349 | 0.732 | 0.918 | 0.66 | 0.737 | 0.664 | 0.284 | 0.271 | 0.235 | 0.226 | – | 0.315 |
| NCI-H1666 | 0.773 | 0.931 | 0.706 | 0.593 | 0.457 | 0.448 | 0.439 | 0.534 | 0.77 | 0.741 | 0.711 | 0.759 | 0.62 | 0.759 | 0.831 | 0.837 | 0.729 | 0.676 | 0.42 |
| NCI-H2228 | 1.04 | 0.99 | 1.21 | 1.19 | 0.321 | 0.416 | 0.358 | 0.494 | 0.519 | 0.832 | 0.519 | 0.776 | 0.692 | 0.428 | 0.454 | 0.405 | 0.39 | 0.972 | 0.395 |
| HCC-44 | 0.85 | 0.93 | 0.829 | 0.904 | 0.63 | 0.595 | 0.578 | 0.608 | 1.05 | 1.01 | 0.919 | 0.971 | 0.983 | – | – | – | – | 0.948 | 0.596 |
| PC-14 | 0.765 | 0.939 | 0.839 | 0.789 | 0.588 | 0.649 | 0.81 | 0.604 | 0.256 | 0.297 | 0.245 | 0.302 | 0.226 | 0.265 | 0.26 | 0.256 | 0.217 | 0.843 | 0.693 |
| NCI-H1299 | 1.05 | 1.02 | 0.999 | 0.98 | 0.869 | 0.874 | 0.769 | 0.67 | 0.975 | 0.991 | 1.01 | 0.927 | 0.943 | – | – | – | – | 0.979 | 0.637 |
| EBC-1 | 0.409 | 0.604 | 0.511 | 0.481 | 0.436 | 0.59 | 0.339 | 0.406 | 0.636 | 0.77 | 0.662 | 0.647 | 0.662 | – | – | – | – | 0.609 | 0.348 |
| NCI-H1623 | – | – | – | – | – | – | – | – | – | – | – | – | – | 0.465 | 0.454 | 0.461 | 0.505 | – | – |
| NCI-H2342 | – | – | – | – | – | – | – | – | 0.462 | 0.554 | 0.543 | 0.401 | 0.475 | 0.362 | 0.32 | 0.37 | 0.293 | – | – |
| SW 900 | – | – | – | – | – | – | – | – | 0.76 | 0.866 | 0.841 | 0.845 | 0.819 | 0.709 | 0.491 | 0.541 | 0.572 | – | – |
| NCI-H1793 | – | – | – | – | 0.371 | 0.445 | 0.241 | 0.321 | 0.867 | 0.892 | 0.883 | 0.806 | 0.712 | 0.393 | 0.375 | 0.296 | 0.294 | – | 0.328 |
| IA-LM | 0.745 | 0.701 | 0.698 | 0.823 | 0.354 | 0.322 | 0.317 | 0.337 | 0.795 | 0.819 | 0.7 | 0.795 | 0.67 | – | – | – | – | 0.959 | 0.275 |
| NCI-H358 | – | – | – | – | 0.323 | 0.364 | 0.327 | 0.363 | 0.567 | 0.651 | 0.575 | 0.773 | 0.579 | 0.136 | 0.111 | 0.118 | 0.129 | – | 0.3 |
| NCI-H1395 | – | – | – | – | 0.643 | 0.74 | 0.602 | 0.633 | 0.451 | 0.484 | 0.447 | 0.473 | 0.427 | 0.408 | 0.415 | 0.432 | 0.445 | – | 0.611 |
| NCI-H522 | – | – | – | – | – | – | – | – | 0.561 | 0.611 | 0.612 | 0.621 | 0.688 | 1.96 | 0.849 | 0.861 | 0.96 | – | – |
| A549 | – | – | – | – | 0.48 | 0.542 | 0.493 | 0.482 | 0.302 | 0.376 | 0.311 | 0.35 | 0.339 | – | – | – | – | – | 0.564 |
| NCI-H1944 | – | – | – | – | 0.369 | 0.37 | 0.383 | 0.36 | 0.627 | 0.394 | 0.392 | 0.418 | 0.406 | 0.186 | 0.186 | 0.161 | 0.167 | – | 0.355 |
| NCI-H1648 | – | – | – | – | – | – | – | – | – | 0.766 | 0.698 | 0.841 | 0.713 | – | – | – | – | – | – |
| LK-2 | – | – | – | – | 0.799 | 0.636 | 0.54 | 0.613 | 0.934 | 0.98 | 0.848 | 0.619 | 0.716 | 0.281 | 0.31 | 0.308 | 0.389 | – | 0.512 |
